Values after ≈ are worked out from the molar mass of the structure shown.
What was measured:
Format in all cases: functional
[1] = tested on: Mycobacterium tuberculosis; test: Antitubercular activity against isoniazid/rifampicin resistant Mycobacterium tuberculosis 12525 incubated for 7 days by alamar blue assay; conditions: Mycobacterium tuberculosis, 12525, 168 h; time 7 day
[2] = tested on: Mycobacterium tuberculosis; test: Antitubercular activity against isoniazid/streptomycin/rifampicin/ethambutol/p-aminosalicylate/prothionamide/capreomycin resistant Mycobacterium tuberculosis 14862 incubated for 7 days by alamar blue assay; conditions: Mycobacterium tuberculosis, 14862, 168 h; time 7 day
[3] = tested on: Mycobacterium tuberculosis; test: Antitubercular activity against isoniazid/rifampicin resistant Mycobacterium tuberculosis 16995 incubated for 7 days by alamar blue assay; conditions: Mycobacterium tuberculosis, 16995, 168 h; time 7 day
[4] = tested on: Mycobacterium tuberculosis; test: Antitubercular activity against isoniazid/streptomycin/rifampicin/ethambutol/p-aminosalicylate/rifabutin/ofloxacin resistant Mycobacterium tuberculosis 13946 incubated for 7 days by alamar blue assay; conditions: Mycobacterium tuberculosis, 13946, 168 h; time 7 day
[5] = tested on: Mycobacterium tuberculosis; test: Antitubercular activity against isoniazid/rifampicin resistant Mycobacterium tuberculosis 16833 incubated for 7 days by alamar blue assay; conditions: Mycobacterium tuberculosis, 16833, 168 h; time 7 day

SMILES | MIC [1] [µg/mL] | MIC [2] [µg/mL] | MIC [3] [µg/mL] | MIC [4] [µg/mL] | MIC [5] [µg/mL]
CCCSc1nc2c(c(=O)[nH]1)[C@@H](c1ccc(OC)cc1[N+](=O)[O-])CC(=O)N2 | 0.125 (≈ 0.32 µM) | 0.059 (≈ 0.151 µM) | 0.125 (≈ 0.32 µM) | 0.125 (≈ 0.32 µM) | 0.06 (≈ 0.154 µM)
C=CCSc1nc2c(c(=O)[nH]1)C(c1ccc(OC)cc1)CC(=O)N2 (stereo not given) | 2 (≈ 5.82 µM) | 1 (≈ 2.91 µM) | 2 (≈ 5.82 µM) | 1 (≈ 2.91 µM) | 1 (≈ 2.91 µM)
C=CCSc1nc2c(c(=O)[nH]1)C(c1ccc(OCC)cc1)CC(=O)N2 (stereo not given) | 4 (≈ 11.2 µM) | 1 (≈ 2.8 µM) | 4 (≈ 11.2 µM) | 4 (≈ 11.2 µM) | 4 (≈ 11.2 µM)
C=CCSc1nc2c(c(=O)[nH]1)C(c1ccc(OC)c(O)c1)CC(=O)N2 (stereo not given) | 8 (≈ 22.3 µM) | 15.6 (≈ 43.5 µM) | 16 (≈ 44.5 µM) | 4 (≈ 11.1 µM) | 4 (≈ 11.1 µM)
CCCSc1nc2c(c(=O)[nH]1)C(c1ccc(OC)c(O)c1)CC(=O)N2 (stereo not given) | 8 (≈ 22.1 µM) | 8 (≈ 22.1 µM) | 8 (≈ 22.1 µM) | 4 (≈ 11.1 µM) | 4 (≈ 11.1 µM)
CCCS(=O)(=O)c1nc2c(c(=O)[nH]1)[C@H](c1ccc(OC)cc1[N+](=O)[O-])CC(=O)N2 |  | > 32 |  |  | 
CCCOc1ccc(C2CC(=O)Nc3nc(SCCC)[nH]c(=O)c32)c(O)c1 (stereo not given) | 8 (≈ 20.5 µM) | 2 (≈ 5.14 µM) | 8 (≈ 20.5 µM) | 8 (≈ 20.5 µM) | 2 (≈ 5.14 µM)
C=CCSc1nc2c(c(=O)[nH]1)C(c1ccc(OC)cc1[N+](=O)[O-])CC(=O)N2 (stereo not given) | 2 (≈ 5.15 µM) | 1 (≈ 2.57 µM) | 2 (≈ 5.15 µM) | 2 (≈ 5.15 µM) | 1 (≈ 2.57 µM)
CCCS(=O)(=O)c1nc2c(c(=O)[nH]1)[C@@H](c1ccc(OC)cc1)CC(=O)N2 |  | > 32 |  |  | 
CCC[S+]([O-])c1nc2c(c(=O)[nH]1)[C@H](c1ccc(OC)cc1[N+](=O)[O-])CC(=O)N2 (stereo not given in full) |  | > 32 |  |  | 
CCCS(=O)(=O)c1nc2c(c(=O)[nH]1)[C@@H](c1ccc(OC)cc1[N+](=O)[O-])CC(=O)N2 |  | > 32 |  |  | 
NNC(=O)c1ccncc1 [ISONIAZID] | > 10 | > 10 | > 10 | > 10 | > 10
CCCSc1nc2c(c(=O)[nH]1)[C@H](c1ccc(OC)cc1)CC(=O)N2 |  | 12.8 (≈ 37.1 µM) |  |  | 
CCCSc1nc2c(c(=O)[nH]1)C(c1ccc(OC)cc1O)CC(=O)N2 (stereo not given) | 4 (≈ 11.1 µM) | 4 (≈ 11.1 µM) | 4 (≈ 11.1 µM) | 2 (≈ 5.53 µM) | 1 (≈ 2.77 µM)
CCCSc1nc2c(c(=O)[nH]1)C(c1ccc(OCC)cc1)CC(=O)N2 (stereo not given) | 1 (≈ 2.78 µM) | 0.25 (≈ 0.696 µM) | 1 (≈ 2.78 µM) | 2 (≈ 5.56 µM) | 0.5 (≈ 1.39 µM)
CCCOc1ccc(C2CC(=O)Nc3nc(SCCC)[nH]c(=O)c32)cc1 (stereo not given) | 2 (≈ 5.36 µM) | 2 (≈ 5.36 µM) | 2 (≈ 5.36 µM) | 1 (≈ 2.68 µM) | 0.5 (≈ 1.34 µM)
CCCSc1nc2c(c(=O)[nH]1)C(c1ccc(OC(C)C)cc1)CC(=O)N2 (stereo not given) | 4 (≈ 10.7 µM) | 2 (≈ 5.36 µM) | 2 (≈ 5.36 µM) | 1 (≈ 2.68 µM) | 1 (≈ 2.68 µM)
CCC[S+]([O-])c1nc2c(c(=O)[nH]1)[C@H](c1ccc(OC)cc1)CC(=O)N2 (stereo not given in full) |  | > 32 |  |  | 
CCCSc1nc2c(c(=O)[nH]1)[C@@H](c1ccc(OC)cc1)CC(=O)N2 | 0.06 (≈ 0.174 µM) | 0.06 (≈ 0.174 µM) | 0.125 (≈ 0.362 µM) | 0.125 (≈ 0.362 µM) | 0.06 (≈ 0.174 µM)
CCC[S+]([O-])c1nc2c(c(=O)[nH]1)[C@@H](c1ccc(OC)cc1[N+](=O)[O-])CC(=O)N2 (stereo not given in full) |  | > 32 |  |  | 
CCCSc1nc2c(c(=O)[nH]1)C(c1ccc(OC)cc1[N+](=O)[O-])CC(=O)N2 (racemic) | 0.5 (≈ 1.28 µM) | 0.25 (≈ 0.64 µM) | 0.5 (≈ 1.28 µM) | 1 (≈ 2.56 µM) | 0.25 (≈ 0.64 µM)
CCCSc1nc2c(c(=O)[nH]1)C(c1ccc(OC)cc1)CC(=O)N2 (racemic) | 0.5 (≈ 1.45 µM) | 0.25 (≈ 0.724 µM) | 0.5 (≈ 1.45 µM) | 0.25 (≈ 0.724 µM) | 0.25 (≈ 0.724 µM)
CO[C@H]1/C=C/O[C@@]2(C)Oc3c(C)c(O)c4c(O)c(c(/C=N/N5CCN(C)CC5)c(O)c4c3C2=O)NC(=O)/C(C)=C\C=C\[C@H](C)[C@H](O)[C@@H](C)[C@@H](O)[C@@H](C)[C@H](OC(C)=O)[C@@H]1C [RIFAMPIN] | > 10 | > 10 | > 10 | > 10 | > 10
CCCSc1nc2c(c(=O)[nH]1)C(c1ccc(OC)c(N)c1)CC(=O)N2 (stereo not given) | 8 (≈ 22.2 µM) | 4 (≈ 11.1 µM) | 8 (≈ 22.2 µM) | 16 (≈ 44.4 µM) | 4 (≈ 11.1 µM)
C=CCSc1nc2c(c(=O)[nH]1)C(c1ccc(OCCC)cc1)CC(=O)N2 (stereo not given) | 4 (≈ 10.8 µM) | 4 (≈ 10.8 µM) | 4 (≈ 10.8 µM) | 1 (≈ 2.69 µM) | 1 (≈ 2.69 µM)
CCCSc1nc2c(c(=O)[nH]1)[C@H](c1ccc(OC)cc1[N+](=O)[O-])CC(=O)N2 |  | 13.4 (≈ 34.4 µM) |  |  | 
CCC[S+]([O-])c1nc2c(c(=O)[nH]1)[C@@H](c1ccc(OC)cc1)CC(=O)N2 (stereo not given in full) |  | > 32 |  |  | 
C=CCSc1nc2c(c(=O)[nH]1)C(c1ccc(OC)cc1O)CC(=O)N2 (stereo not given) | 16 (≈ 44.5 µM) | 13.3 (≈ 36.9 µM) | 32 (≈ 89 µM) | 8 (≈ 22.3 µM) | 8 (≈ 22.3 µM)
CCCCSc1nc2c(c(=O)[nH]1)C(c1ccc(OC)cc1)CC(=O)N2 (stereo not given) | 2 (≈ 5.56 µM) | 1 (≈ 2.78 µM) | 2 (≈ 5.56 µM) | 2 (≈ 5.56 µM) | 1 (≈ 2.78 µM)
CCCS(=O)(=O)c1nc2c(c(=O)[nH]1)[C@H](c1ccc(OC)cc1)CC(=O)N2 |  | > 32 |  |  | 
